Experimental data: patent publication US20050182129A1, “Hair growth tonic” (priority 2002, published 2005)

What was measured:
Assay type in all cases: cell-based
GAPDH mRNA = GAPDH mRNA amount (QuantiGene bDNA method), Test Example 4; details: Human dermal papilla cell; human dermal papilla cells, 24 hours, concentration at which the mRNA amount is halved, average of 2 wells
Method: (§1) Human dermal papilla cells, which were purchased from Toyobo, were cultured in MEM (Invitrogen) containing 12% FBS.
(§2) The dermal papilla cells in passage 5 were sowed in a 96-well plate to give a density of 1×10^4 cells/well and cultured overnight. Then, the medium was replaced by a medium to which no compound was added or a medium containing the compounds and the culture was continued for additional 24 hours. After the completion of the culture, WNT-5A or GAPDH mRNA amount was measured by using QuantiGene High Volume Kit (Bayer Medical) by the branched DNA (bDNA) signal amplification method (Drug Metabolism and Disposition, 28(5), 608-616 (2000)). In accordance with the protocol attached to QuantiGene High Volume Kit, cells were lysed by using Lysis Mixture and the lysis solution was added to capture plate. Next, a set of probes specific to WNT-5A or GPDH was added and allowed to react at 53° C. for 20 hours. After washing the plate by using 0.1×SSC containing 0.03% lauryl sulfate, an amplification probe comprising bDNA was added and allowed to react at 46° C. for 1 hour. After washing the plate, a labeling probe labeled with alkaline phosphatase was added and allowed to react at 46° C. for 1 hour. After washing the plate, a substrate Lumi-Phos Plus was added and allowed to react at 46° C. for 30 minutes. Then, the luminescence was measured by using WALLAC 1420ARVOsx.
As GAPDH-specific probe set, use was made of bDNA probe set for human GAPDH (XenoTech LLC, B0960).
(§3) The amounts of WNT-5A and GAPDH mRNAs are expressed in relative values (%) to the control case of adding of no compound and the concentration of a compound at which the mRNA amount is halved (IC50) is calculated as an index of WNT-5A mRNA decreasing activity of the corresponding compound.

[1] = test system: Human dermal papilla cells; assay: Dermal papilla cell growth promoting activity (WST-1, spheroid culture), Test Example 5; details: for activity at 1 µM / activity at 4 µM / activity at 16 µM: Homo sapiens, Human dermal papilla cell, 72 hours, average of 3 wells, read-out: ΔO.D. 450 nm/620 nm (% of control); for growth promoting activity on dermal papilla cells: at 1 μM; for growth of dermal papilla cells: no concentration stated
Method: as §1
The dermal papilla cells in passage 5 were sowed in a 96-well plate for spheroid culture to give a density of 1.5×10^4 cells/well and cultured overnight. Then, the medium was replaced by a medium to which no compound was added or a medium containing the compound and the culture was continued for additional 72 hours. After the completion of the culture, cells were counted by using a Cell Counting Kit (Wako Pure Chemicals). Five hours before the completion of the culture, WST-1 reagent at 1/10 amount per medium was added to each medium and then the optical density (O.D. 450 nm/620 nm) of the medium was measured at the completion of the culture. A positive correlation was observed between the cell number and optical density within the range of 0.25 to 4×10^4 cells/well.
In this table, each numerical value means an average of 6 wells (control group) or 3 wells (test groups). To compare the control group to the test groups, Student's t-test was employed: • *:P<0.05, **:P<0.01, ***:P<0.001.

WNT-5A mRNA = assay: Activity of decreasing WNT-5A mRNA amount (QuantiGene bDNA method), Test Example 4; details: human dermal papilla cells; for IC50: concentration at which the mRNA amount is halved, average of 2 wells
Method: as §1, §2
The WNT-5A-specific probe set was designed based on the sequence of the coding region of human WNT-5A mRNA. As capture extenders (CEs), 10 probes (SEQ ID NOs:12 to 21) were used; as label extenders (LEs), 31 probes (SEQ ID NOs:22 to 52) were employed; and as blockers, […] (SEQ ID NOs:53 to 60) were employed.
as §3

[2] = Homo sapiens, Human dermal papilla cell, 24 h

Row | SMILES | IC50 (GAPDH mRNA) [µM] | activity at 1 µM [1] [%] | activity at 4 µM [1] [%] | activity at 16 µM [1] [%] | growth promoting activity on dermal papilla cells [1] | IC50 (WNT-5A mRNA; [2]) [µM] | WNT-5A mRNA amount / expression in dermal papilla cells (WNT-5A mRNA) | IC50 (WNT-5A mRNA; 24 hours) [µM] | growth of dermal papilla cells [1] | IC50 (WNT-5A mRNA; Human dermal papilla cell, 24 hours) [µM]
1 | C[C@@H]1C[C@@H]2O[C@H]2/C=C\C=C\C(=NO)Cc2c(Cl)c(O)cc(O)c2C(=O)O1 [Compound 35] | 4.29 | 161 ± 3.5 | 182 ± 3.7 | 159 ± 18.3 | significant growth promoting activity |  |  |  |  | 
2 | C[C@@H]1C[C@@H]2O[C@H]2/C=C\C=C\C(=O)Cc2c(Cl)c(OC(=O)c3cccnc3)cc(OC(=O)c3cccnc3)c2C(=O)O1 [Compound 58] | 80 | 123 ± 1.8 | 150 ± 9.4 | 217 ± 14.5 | significant growth promoting activity | < 1 | effectively inhibit | 0.5 | promote the growth | 
3 | COc1cc(O)c2c(c1)/C=C/CC(O)C(O)C(=O)/C=C\CC(C)OC2=O (stereo not shown) [Compound 79] | 38.2 | 87.5 ± 9.9 | 98.6 ± 3.6 | 120 ± 4.1 |  | 0.9 |  |  | excellent effect of promoting the growth | 
4 | C[C@@H]1C[C@@H]2O[C@H]2/C=C\C=C\C(=O)Cc2c(Cl)c(O)cc(O)c2C(=O)O1 [Compound 1, Radicicol] | 28.2 | 133 ± 11.6 | 184 ± 12.1 | 145 ± 13 | significant growth promoting activity |  |  |  |  | 
5 | C[C@@H]1CC2OC2C/C=C\C[C@H](O)Cc2c(Cl)c(O)cc(O)c2C(=O)O1 (stereo partly shown) [Compound 38] | > 120 | 104 ± 2.6 | 89.6 ± 7.3 | 125 ± 5.1 |  | 6.42 |  |  |  | 
6 | C[C@@H]1C[C@@H]2O[C@H]2/C=C\C=C\C(=O)Cc2c(Cl)c(OCC(=O)Sc3ccccc3)cc(OCC(=O)Sc3ccccc3)c2C(=O)O1 [Compound 52] | 13.5 | 124.5 ± 1 | 143 ± 9.5 | 197 ± 5.4 | significant growth promoting activity |  | effectively inhibit |  | promote the growth | 
7 | CC1CC2OC2CC2=CC=C(Cc3c(Cl)c(O)cc(O)c3C(=O)O1)O2 (stereo not shown) [Compound 77] | > 120 | 81.6 ± 4.4 | 86.3 ± 5 | 181 ± 21.7 |  | 8.13 | effectively inhibit |  | promote the growth | 
8 | C[C@@H]1C[C@@H]2O[C@H]2/C=C\C=C\C(=O)Cc2c(Cl)c(OC3OC(CO)C(O)C3O)cc(O)c2C(=O)O1 (stereo partly shown) [Compound 76] | 55.9 | 80 ± 5.6 | 77.1 ± 7 | 121 ± 6.3 |  | 8.56 |  |  |  | 
9 | CC(=O)S[C@@H]1/C=C/CC(=O)Cc2c(Cl)c(O)cc(O)c2C(=O)O[C@H](C)C[C@@H]2O[C@H]21 [Compound 54] | > 30 | 80 ± 2.4 | 97.1 ± 5.6 | 135 ± 0.9 |  | 2.37 |  |  |  | 
10 | C[C@@H]1C[C@H](OC=O)[C@@H](Cl)/C=C\C=C\C(=O)Cc2c(Cl)c(O)cc(O)c2C(=O)O1 [Compound 18] | 6.58 | 116 ± 9 | 147 ± 11.3 | 211 ± 25.9 | significant growth promoting activity | < 1 |  | 0.63 |  | 
11 | O=C1c2no[n+]([O-])c2CCC1NO (stereo not shown) [Compound 24] | 21.1 | 108 ± 6.9 | 104 ± 10.5 | 120 ± 3.7 |  |  |  |  | excellent effect of promoting the growth | 4.74
12 | CC(=O)Oc1cc(OC(C)=O)c2c(c1Cl)CC(=O)/C=C/C=C\[C@@H]1O[C@H]1C[C@@H](C)OC2=O [Compound 2] | 26.4 | 143 ± 10.1 | 167 ± 8.5 | 241 ± 25.3 | significant growth promoting activity |  |  |  |  | 
13 | C[C@@H]1C[C@@H]2O[C@H]2[C@H](Sc2ccccc2)/C=C/CC(=O)Cc2c(Cl)c(O)cc(O)c2C(=O)O1 [Compound 53] | 45.5 | 127 ± 14.3 | 150 ± 12.8 | 184 ± 3.6 | significant growth promoting activity |  | effectively inhibit |  | promote the growth | 
14 | CC(=O)S[C@@H]1/C=C\CC(=O)Cc2c(Cl)c(O)cc(O)c2C(=O)O[C@H](C)C[C@@H]2O[C@H]21 [Compound 55] | > 30 | 89 ± 1.8 | 127 ± 7.2 | 176 ± 9.8 |  | 0.74 |  |  |  | 
15 | CC1CC2OC2CC(O)CCC(=O)Cc2c(Cl)c(O)cc(O)c2C(=O)O1 (stereo not shown) [Compound 73] | > 120 | 91.7 ± 5.7 | 81.2 ± 7.8 | 206 ± 9.2 |  | 9.37 |  |  |  | 
16 | C[C@@H]1C[C@@H]2O[C@H]2CCCCC(=O)Cc2c(Cl)c(O)cc(O)c2C(=O)O1 [Compound 4] | > 30 | 97.4 ± 24.4 | 148 ± 4.9 | 180 ± 6.9 |  | 3.46 |  |  |  | 
17 | CC1C/C=C/C(O)C/C=C/C(=O)Cc2cc(O)cc(O)c2C(=O)O1 (stereo not shown) [Compound 68] | 50.6 |  |  |  |  | 10.7 |  |  |  | 
18 | CC1C/C=C/C(O)C/C=C/C(=O)Cc2c(Cl)c(O)cc(O)c2C(=O)O1 (stereo not shown) [Compound 65] | 109 | 92.1 ± 6.7 | 87.6 ± 8.7 | 141 ± 5.3 |  | 8.28 |  |  |  | 
19 | C[C@@H]1C[C@@H]2O[C@H]2/C=C\C=C\[C@H](O)Cc2c(Cl)c(O)cc(O)c2C(=O)O1 [Compound 5] | > 30 | 110 ± 45 | 175 ± 29.2 | 236 ± 26.4 |  | 3.47 |  |  |  | 
